# Measured values published in US20100152301A1, “Treatment of Viral Infections” (GOVERNMENT OF THE US, AS REPRESENTED BY THE SECRETARY, …, priority 2005, published 2010).
# What was measured:
# HIV-1 integrase [1] = molecular target: T1, HIV-1 integrase (Human immunodeficiency virus type 1 group M subtype B, UniProt P04585); experiment: Integrase catalytic assay, 3′-processing (3′-P), 21 bp duplex substrate; format: biochemical; conditions: In vitro IC50 21 bp substrate 3′-P
# T1 construct: Expression and purification of the recombinant HIV-1 integrase in Escherichia coli; made in house; host or cells: Escherichia coli
# Method: (§1) Recombinant HIV integrase and oligonucleotide substrates. Expression and purification of the recombinant HIV-1 integrase in Escherichia coli were performed according to (Leh et al., 2000; Marchand et al., 2001) with addition of 10% glycerol to all buffers. The preparation of the Q148C/SSS-mutant integrase will be described elsewhere (Johnson et al., 2005). The oligonucleotide substrates, except those used for the disulfide crosslinking (FIG. 5A), were purchased from Integrated DNA Technologies, Inc. (Coraville, Iowa) and purified by polyacrylamide gel. The single-stranded oligonucleotides were 5′-end labeled with [γ^32P]-ATP (Perkin Elmer, Wellesley, M A) and T4 polynucleotide kinase (New England BioLabs, Ipswich, M A). Unincorporated nucleotide was removed using mini Quick Spin Oligo columns (Roche Diagnostics, Indianapolis, Ind.). Substrates were obtained after annealing with complementary non-labeled oligonucleotides. The thiol-modified substrate (FIG. 5A) for disulfide crosslinking assay was synthesized as essentially described by W. Santos and G. Verdine (Department of Chemistry and Chemical Biology, Harvard University, Cambridge, Mass.) (They and Verdine, 2002).
# (§2) Integrase catalytic assays. Reactions were performed in 10 μl with 300 nM of recombinant IN, 20 nM of the 5′-end [^32P]-labeled oligonucleotide substrates and inhibitors at the indicated concentrations. 10% DMSO was included in controls. Reactions were incubated for 40 min at 37° C. in a buffer containing a final concentration of 25 mM MOPS, pH 7.2, 25 mM NaCl, 14.3 mM β-mercaptoethanol and 7.5 mM of divalent cations (MgCl2 or MnCl2 as indicated). Reactions were stopped by addition of 20 μl loading dye (10 mM EDTA, 98% deionized formamide, 0.025% xylene cyanol and 0.025% bromophenol blue). Reactions were heated at 95° C. for 1 min before electrophoresis in 20% polyacrylamide-7 M urea gels. Gels were dried and reaction products were visualized and quantitated with a Molecular Dynamics PhosphorImager (Sunnyvale, Calif.). Densitometric analyses were performed using ImageQuant from the Molecular Dynamics software. The concentrations at which enzyme activity was reduced by 50% (IC50), was determined using “Prism” software (GraphPad Software, San Diego, Calif.) for nonlinear regression to fit dose-response data to logistic curve models.
# HIV-1 integrase [2] = molecular target: T1, HIV-1 integrase; experiment: Integrase binding to HIV DNA, Schiff base crosslinking assay; conditions: Mg2+
# Method: Integrase binding to HIV DNA using the shiff-base assay. The shiff-base assay was performed as described (Mazumder and Pommier, 1995). Briefly, 300 nM recombinant IN was incubated with inhibitors (at the indicated concentration) for 15 min at 37° C. Subsequently, 20 nM of 5′-end labeled substrate containing the abasic oligonucleotide (FIG. 6A) was added for 10 min at room temperature in reaction buffer described above for integrase catalytic assays. A freshly prepared solution of sodium borohydride (0.1 M final concentration) was added for 5 min. An equal volume (10 μl) of 2×SDS-polyacrylamide gel electrophoresis buffer (Invitrogen, Carlsbad, Calif.) was added in each reaction. Reaction products were heated at 95° C. for 1 min before analysis by electrophoresis in a 12-20% polyacrylamide gels (Invitrogen, Calif., USA). Gels were dried and reaction products were quantitated using the same method as described above.
# HIV-1 integrase [3] = molecular target: T1, HIV-1 integrase; experiment: Disintegration assay with Y-oligomer substrate; format: biochemical; conditions: for IC50: In vitro IC50 Disintegration
# Method: as §1, §2
# [4] = molecular target: T2, Q148C/SSS-mutant integrase (Human immunodeficiency virus type 1 group M subtype B, UniProt P04585, C1203S/C1212S/C1427S/Q1295C); experiment: biochemical; format: binding, HIV-1
# T2 construct: 10 μM recombinant Q148C/SSS-mutant integrase was incubated with 10 μM DNA substrate; made in house
# Method: Briefly, 10 μM recombinant Q148C/SSS-mutant integrase was incubated with 10 μM DNA substrate (FIG. 5A) containing tethered thiols in the presence of 20 mM Tris, pH 7.4, 10% glycerol and 7.5 mM of divalent cations (MgCl2 or MnCl2 as indicated) for 20 min at 37° C. Reactions were stopped by the addition of 20 mM methylmethanethiosulfonate (capping reagent). Non-reducing gel loading buffer (100 mM Tris-HCl, pH 6.8, 4% SDS, 0.2% bromophenol blue, 20% glycerol) was added and samples were heated at 95° C. before loading onto 16% tricine gels (Invitrogen, Carlsbad, Calif.). Gels were stained with Microwave Blue according to manufacturer's recommendations (Protiga, Frederick, Md.).
# DNA (20 nM) containing a [5′-^32P]-label on one strand and a thiol-modified cytosine on the other strand was added and reactions were capped with methylmethanethiosulfonate at 1 minute. Following capping, non-reducing gel loading buffer (100 mM Tris-HCl, pH 6.8, 4% SDS, 0.2% bromophenol blue, 20% glycerol) was added and samples were directly loaded on 16% tricine gels (Invitrogen, Carlsbad, Calif.). Gels were dried and reaction products were quantitated using the same way as described above.
# MT-2 cells = format: cell-based; conditions: human, 4 days
# Method: (§3) Inhibition of HIV-induced cytopathic effect in cell culture. The MT-2 cells were grown in RPMI-1640 medium with GlutaMAX™, supplemented with 10% (v/v) heat-inactivated fetal bovine serum (both from Gibco, Invitrogen corporation, Carlsbad). The cells were maintained at 37° C. in a humidified atmosphere of 5% CO2 in air. Every 4-5 days, cells were spun down and seeded at 2×10^5 cells/ml in new cell culture flasks. HIV ([…] isolate) was obtained from Advanced Biotechnology Incorporated (Columbia, Md.). The virus stock [3,2×10^4 CCID50 (50% cell culture infective dose) per ml as determined for MT-2 cells] was stored at −70° C. until used. Stock solutions of compounds were diluted using medium directly into 96-well assay plate (Costar, Corning inc, Corning, N.Y.).
# (§4) Cells were then infected with 100 CCID50 or mock-infected. The cell cultures were incubated at 37° C. in a humidified atmosphere of 5% CO2 in air. […] The percent cell viability in drug treated uninfected and infected cells was determined based on the viability of the uninfected control drug treated cells. The concentration of drug required to inhibit approximately 50% of the HIV-1 induced cytotoxicity was calculated from the plot of compound concentration verses the percent viable cells.
# HIV-1 protease = HIV-1 protease (Human immunodeficiency virus type 1 group M subtype B, UniProt P04585); experiment: Fluorimetric HIV-1 protease assay; format: biochemical; conditions: concentration up to 25 μM; data not shown
# Method: Fluorimetric HIV-1 protease assay. The fluorescent HIV-1 protease substrate (RE-(EDANS)-SQNYPIVQK-(DABCYL)-R) was obtained from Molecular Probes, Inc. (Eugene, Oreg.). Substrate and buffer were pre-warmed at 37° C. for at least 20 min before use. The protease (25 nM final concentration) was incubated in the manufacturer's recommended assay buffer (100 mM Na acetate, 1M NaCl, 1 mM EDTA, 1 mM DTT, 10% DMSO and 1 mg ml^−1 BSA pH 4.7) at 37° C. in the presence of 1-25 μM NSC 18806 for 10 min and then added to the warmed substrate solution (40 μM) containing the different treatments to initiate the reaction. Acetyl pepstatin (Sigma, St. Louis, Mo.) at 20 nM was used a positive HIV-1 protease inhibitor control. The total assay volume was 100 µL. Fluorescence was monitored for 30 min in a fluorescence microplate reader (FMAX, Molecular Devices, Sunnyvale, Calif.) with 355 nm excitation and 460 nm emission filters and the rate of reactions compared for the different conditions.
# HIV-1 integrase [5] = molecular target: T1, HIV-1 integrase; experiment: Integrase catalytic assay, strand transfer (ST), 21 bp duplex substrate; format: biochemical; conditions: for IC50: In vitro IC50 21 bp substrate ST
# Method: as §1, §2
# HIV-1IIIB = experiment: Inhibition of HIV-induced cytopathic effect in MT-2 cell culture; format: cell-based; conditions: MT-2 cells
# Method: as §3, §4
# HIV-1 integrase [6] = molecular target: T1, HIV-1 integrase; experiment: Strand transfer assay with preprocessed (19/21) DNA substrate; format: biochemical; conditions: In vitro IC50 Preprocessed substrate
# Method: as §1, §2
compound,measurement,setting,value
"CC(C)c1ccc(O)c(=O)c(O)c1 [NSC 18806, β-thujaplicinol]",IC50,HIV-1 integrase [1]; Mg2+,117 ± 7.1 µM
same,IC50,HIV-1 integrase [1]; Mn2+,24.6 µM
same,inhibition of Schiff base IN-DNA crosslinking (in words),HIV-1 integrase [2],did not block
same,IC50,HIV-1 integrase [3]; Mg2+,> 333 µM
same,IC50,HIV-1 integrase [3]; Mn2+,23.8 µM
same,inhibition of disintegration (in words),HIV-1 integrase [3]; Mg2+,inability of NSC 18806 to inhibit disintegration
same,inhibition of disintegration (in words),HIV-1 integrase [3]; Mn2+,only inhibited in the presence of Mn^2+ at high drug concentration
same,inhibition at 333 µM,"HIV-1 integrase [3]; read-out: inhibition activity, disintegration",5 to 20%
same,IC50,[4],32 µM
same,inhibition of integrase-DNA disulfide-crosslinking (in words),"[4]; drug 1 mM, Mg2+ or Mn2+ (FIG. 5B)",metal-dependent inhibition
same,concentrations with presence of toxicity,MT-2 cells,≥ 12 µM
same,inhibition of HIV-1 protease (in words),HIV-1 protease,failed to inhibit HIV-1 protease
same,IC50 for 3′-P relative to IC50 for ST,"HIV-1 integrase [5]; 21 bp duplex, in the presence of either Mg2+ or Mn2+",approximately 5 fold
same,IC50,HIV-1 integrase [5]; Mg2+,21.6 ± 3.4 µM
same,IC50,HIV-1 integrase [5]; Mn2+,4.8 ± 2.5 µM
same,IC50,"HIV-1IIIB; Human immunodeficiency virus 1, MT2, 96 h, four days after infection, read-out: estimated IC50, protection of infected cells from HIV-induced cytopathic effect",~12 µM
same,activity in HIV infectivity assay (in words),HIV-1IIIB,exhibits cytoprotective activity
same,IC50,HIV-1 integrase [6]; Mg2+,18.1 ± 6.2 µM
same,IC50,HIV-1 integrase [6]; Mn2+,5 µM
